US20100286164A1, “SUBSTITUTED ARYL ALKYLAMINO-OXY-ANALOGS AND USES THEREOF” (The Brigham and Women's Hospital, Inc, priority 2007, published 2010)

Experiments:
Format in all cases: biochemical
[1] = target: T1, γ-secretase (N100FLAG Notch-based substrate) (Homo sapiens, UniProt P49768); experiment: In vitro γ-secretase assay, N-100 Flag (Notch-based substrate) cleavage; conditions: effect on N-100 Flag cleavage; compounds tested in vitro at 100 μM
T1 construct: made in house; host or cells: S-1 CHO cell line (Chinese hamster ovary)
Experimental: (§1) Purification of γ-Secretase and in Vitro γ-Secretase Assays—The following procedures can be used to isolate γ-secretase and measure its enzymatic activity. The multistep procedure for the high grade purification of human γ-secretase from the S-1 cells is performed as described previously (Fraering, P. C., et al. (2004) Biochemistry 43, 9774-9789). In vitro γ-secretase assays using the recombinant APP-based substrate C100FLAG and the recombinant Notch-based substrate N100FLAG are performed as reported previously (Esler, W. P., Kimberly, W. T., Ostaszewski, B. L., Ye, W., Diehl, T. S., Selkoe, D. J., and Wolfe, M. S. (2002) Proc. Natl. Acad. Sci. U.S.A. 99, 2720-2725, Kimberly, W. T., et al. (2003) Biochemistry 42, 137-144). Basically, the proteolytic reaction mixtures contain C100FLAG and N100FLAG substrate at a concentration of 1 μm, purified γ-secretase solubilized in 0.2% CHAPSO/HEPES, pH 7.5, at 10-fold dilution from stock (stock=the M2 anti-FLAG-eluted fraction in the purification protocol from S-1 cells (Fraering, P. C., et al. (2004) Biochemistry 43, 9774-9789)), 0.025% phosphatidylethanolamine (PE), and 0.10% phosphatidylcholine (PC). All the reactions are stopped by adding 0.5% SDS, and the samples are assayed for Aβ40 and Aβ42 by ELISA as described (Xia, W., Zhang, J., Ostaszewski, B. L., Kimberly, W. T., Seubert, P., Koo, E. H., Shen, J., and Selkoe, D. J. (1998) Biochemistry 37, 16465-16471). The capture antibodies are 2G3 (to Aβ residues 33-40) for the Aβ40 species and 21F12 (to Aβ residues 33-42) for the Aβ42 species.
(§2) Western Blotting and Antibodies—The following assay can be used to determine the extent to which the compounds of interest modulate the cleavage of APP and the Notch receptor. For Western analysis of PS1-NTF, PS1-CTF, Aph1α2-HA, FLAG-Pen-2, and NCT-GST, the samples are run on 4-20% Tris-glycine polyacrylamide gels, transferred to polyvinylidene difluoride, and can be probed with Ab14 (for PS1-NTF, 1:2000; a gift of S. Gandy), 13A11 (for PS1-CTF, 5 μg/ml; a gift of Elan Pharmaceuticals), 3F10 (for Aph1α2-HA, 50 ng/ml; Roche Applied Science), anti-FLAG M2 (for FLAG-Pen-2, 1:1000; Sigma), or αGST antibodies (for NCT-GST, 1:3000; Sigma). Samples from the γ-secretase activity assays (above) are run on 4-20% Tris-glycine gels and can be transferred to polyvinylidene difluoride membranes to detect AICD-FLAG with anti-FLAG M2 antibodies (1:1000, Sigma) and NICD-FLAG with Notch Ab1744 antibody (1:1000, Cell Signaling Technology), which is selective for the N terminus of NICD; the same samples are transferred to nitrocellulose membranes to detect Aβ with the anti-Aβ 6E10 antibody. Levels of AICD-FLAG and NICD-FLAG are estimated by densitometry using AlphaEase/Spot Denso (Alpha Innotech Corp.).
(§3) Naphthyl Amine Alcohol Analogs and Assay Data—Compounds listed in Table 2 may be assayed as described herein (e.g., in Examples 3 and 4) and the specificity may be evaluated by comparing the relative inhibitions of C-100 Flag and N-100 Flag cleavage. The potency of the inhibitor may be evaluated with an Aβ1-40 ELISA assay (e.g., using an Aβ40 ELISA kit available from Invitrogen, Carlsbad, Calif.). […] The following table indicates the properties of certain compounds of the invention that were assayed as described herein. (INH=Inhibits)

[2] = target: T2, γ-secretase (Aβ1-40 production) (Homo sapiens, UniProt P49768); experiment: γ-Secretase assay, Aβ1-40 ELISA; conditions: 100 μM
T2 construct: made in house; host or cells: S-1 CHO cell line (Chinese hamster ovary)
Experimental: as §1, §3

[3] = target: T3, γ-secretase (C100FLAG APP-based substrate) (Homo sapiens, UniProt P49768); experiment: In vitro γ-secretase assay, C-100 Flag (APP-based substrate) cleavage; conditions: effect on C-100 Flag cleavage; compounds tested in vitro at 100 μM
T3 construct: made in house; host or cells: S-1 CHO cell line (Chinese hamster ovary)
Experimental: as §1, §2, §3

Row | SMILES | γ-Secretase Assay N-100 Flag [1] | inhibition at 100 µM [2] [%] | γ-Secretase Assay C-100 Flag [3] | γ-Secretase Assay ELISA % Inhibition [100 μM] Aβ1-40 [2] [%]
1 | CC(C)N(CCC(O)c1ccc2ccccc2c1)Cc1ccccc1 (stereo not shown) [Example 1, 3-(benzyl(isopropyl)amino)-1-(naphthalen-2-yl)propan-1-ol] | Enhances (Enh) | 16 | Inhibits (Inh) | 
2 | OC(CCN1CCN(c2ccccc2)CC1)c1ccc2ccccc2c1 (stereo not shown) [Example 3] | Enh | 0 |  | 
3 | OC(CCN1CCN(c2cccc(C(F)(F)F)c2)CC1)c1ccc2ccccc2c1 (stereo not shown) [Example 13] | Enh | 38 | Enh | 
4 | OC(CCN1CCN(c2ccc(F)cc2)CC1)c1ccc2ccccc2c1 (stereo not shown) [Example 14, 3-(4-(4-fluorophenyl)piperazin-1-yl)-1-(naphthalen-2-yl)propan-1-ol] | Enh | 61 | Inh | 
5 | CC(C)N(CCC(O)c1ccc2ccccc2c1)Cc1ccc(Cl)c(Cl)c1 (stereo not shown) [Example 17] | Enh | 60 | Inh | 
6 | CC(C)N(CCC(O)c1ccc2ccccc2c1)Cc1ccc(F)c(F)c1 (stereo not shown) [Example 18] | Enh | 64 | Inh | 
7 | CC(C)N(CCC(O)c1cccc2ccccc12)Cc1ccccc1 (stereo not shown) [Example 19] | Enh. | 46 | Inh | 
8 | CC(C)N(CCC(O)c1ccc2ccccc2c1)c1ccccc1 (stereo not shown) [Example 20] | Inh | 68 | Inh | 
9 | CC(C)N(CCC(O)c1ccc2ccccc2c1)Cc1cc(F)cc(F)c1 (stereo not shown) [Example 31] | Inh | 54 | Inh | 
10 | CCOc1ccc(NCCC(O)c2ccc3ccccc3c2)cc1 (stereo not shown) [Example 32] | Inh | 40 | Inh | 
11 | OC(CCNc1ccc(F)c(Cl)c1)c1ccc2ccccc2c1 (stereo not shown) [Example 33] | Inh | 40 | Inh | 
12 | CC(C)N(CCC(O)c1ccc(C(F)(F)F)cc1)Cc1ccccc1 (stereo not shown) [Example 41] | Enh | 27 |  | 
13 | CN(CCC(O)c1ccc2ccccc2c1)Cc1ccccc1 (stereo not shown) [Example 44] | Enh |  |  | 56
14 | Cc1ccc(C(O)CCN(Cc2ccccc2)C(C)C)cc1F (stereo not shown) [Example 54] | Inh | 29 |  | 
15 | CC(C)N(CCC(O)c1cc(F)cc(Cl)c1)Cc1ccccc1 (stereo not shown) [Example 55] | Inh | 30 |  | 
16 | Cc1cccc(C)c1C(O)CCN(Cc1ccccc1)C(C)C (stereo not shown) [Example 56] | Inh | 20 |  | 
17 | CC(C)N(CCC(O)c1cc(C(F)(F)F)cc(C(F)(F)F)c1)Cc1ccccc1 (stereo not shown) [Example 57] | Inh | 47 |  | 
18 | CC(C)N(CC[C@@H](O)c1ccc2ccccc2c1)Cc1ccccc1 [Example 75] | Inh | 0 |  | 
19 | OC(CN1CCN(c2ccccc2)CC1)c1ccc2ccccc2c1 (stereo not shown) [Example 81] | Enh | 0 |  | 
20 | CC(C)N(Cc1ccccc1)CC(O)c1ccc2ccccc2c1 (stereo not shown) [Example 82] | Inh | 0 | Inh | 
21 | O=[N+]([O-])c1cc(NCCC(O)c2ccc3ccccc3c2)ccc1Cl (stereo not shown) [Example 83] | Inh | 46 | Inh | 
22 | COC(CCN(Cc1ccccc1)C(C)C)c1ccc2ccccc2c1 (stereo not shown) [Example 84] |  | 51 | Inh | 
23 | CC(CN(Cc1ccccc1)C(C)C)C(O)c1ccc2ccccc2c1 (stereo not shown) [Example 88] |  |  | Inh | 66
